# Experimental data taken from US5516768A, “Uncompetitive inhibition of steroid and 5α-reductose” (priority 1990, dated 1996).
# Key:
# [1] = system: involuted ventral prostate; settings: Stoner, et al. (1987) Endocrinology 120:774; cited from earlier work
# seminal vesicle = test: testosterone induced regrowth of the involuted seminal vesicle of castrated male rats; assay type: in vivo, rat; settings: castrated + testosterone implant, 10 days, N = 5 rats/group
# From the text: (§1) When male rats are castrated and allowed to go untreated for 1 month, the ventral prostates involutes to approximately 10% of its original total cell number. If exogeneous testosterone is given to these castrated rats to restore the physiological serum level of testosterone, the involuted ventral prostate rapidly proliferates restoring its original cell content within 2-3 weeks. Using the ability to inhibit this testosterone induced regrowth of the rat ventral prostate, the efficacy and potency of twice daily oral administering of the "competitive" inhibitor and the "uncompetitive" inhibitor individually and in combination were compared.
# (§2) To perform these experiments, a total of 50 male Sprague Dawley rats (From Harlan Sprague-Dawley, Inc.) of 250-300 gm starting weight were used. Forty-five of these animals were castrated and allowed to go untreated for 1 month to produce maximal ventral prostatic and seminal vesicle involution. After this 1 month period, 40 of the 45 castrated animals were implanted subcutaneously in the flank with a 2.5 cm long testosterone filled silastic capsule. The 50 animals were set up in 10 groups as follows:
# (§3) The animals were administered the 5-α-reductase inhibiting compounds twice a day (BID) for 10 consecutive days. This test compound was dissolved in propylene glycol and diluted in normal saline. At the end of the treatment period blood was collected from the animals and then they were sacrificed, the ventral prostrates were excised and weighed, and DHT levels were measured by the following procedure.
# [2] = system: involuted ventral prostate; test: testosterone induced regrowth of the involuted ventral prostate of castrated male rats; assay type: in vivo, rat; settings: castrated + testosterone implant, 10 days, N = 5 rats/group
# Protocol: Certain combinations of the invention were tested for their in vivo potency in inhibiting steroid 5-α-reductase activity.
# as §1, §2, §3
# Prostate tissue was excised, trimmed, weighed, minced and washed with phosphate buffer. The tissue then was homogenized in phosphate buffer and extracted by addition of ethyl acetate and mixing on an orbital mixer for forty-five minutes. The ethyl acetate was evaporated, the residue was reconstituted in ethanol, and was centrifuge filtered using […] filter paper. The components then were separated using reverse-phase HPLC collecting the DHT fraction. The fraction was reduced to dryness and reconstituted in standard commercial DHT assay buffer. DHT levels then were measured using standard techniques such as radioimmunoassay.
# steroid 5-α-reductase = test: kinetic mechanism of inhibition versus testosterone (competitive / uncompetitive); assay type: biochemical; settings: competitive = binds E-NADPH; uncompetitive = binds E-NADP+
# From the text: Dead-end inhibitors of bisubstrate enzymes which follow ordered kinetic mechanisms can associate to one or more existing enzyme species. With steroid 5-α-reductase, enzyme forms to which such a steroidal-inhibitor might bind would include free enzyme, E, and enzyme binary complexes with cofactor, E-NADPH and E-NADP^+.
# The response of the velocity of enzyme catalysis with varying concentrations of testosterone in the presence of an inhibitor that binds to the E-NADPH complex can be described by equation 1; this model is denoted as competitive inhibition versus the variable substrate, in this case testosterone.
# v=VM A/[Ka (1+I/Kis)+A] (1)
# v=VM A/[Ka +A(1+K/Kii)] (2)
# The results of these analyses are typically expressed in double reciprocal plots: 1/velocity versus 1/[testosterone].
mechanism of inhibition versus testosterone (steroid 5-α-reductase),SMILES,plateau dose-response effect on prostate weight reported in other studies [1],Seminal Vesicle DNA (μg/gland) (seminal vesicle; BID 12.5 mg/kg oral),Seminal Vesicle weight (mg/gland) (seminal vesicle; BID 12.5 mg/kg oral),Seminal Vesicle DNA (μg/gland) (seminal vesicle; BID 25 mg/kg oral),Seminal Vesicle weight (mg/gland) (seminal vesicle; BID 25 mg/kg oral),Seminal Vesicle DNA (μg/gland) (seminal vesicle; BID 50 mg/kg oral),Seminal Vesicle weight (mg/gland) (seminal vesicle; BID 50 mg/kg oral),Ventral Prostate DNA (μg/gland) ([2]; BID 12.5 mg/kg oral),Ventral Prostate weight (mg/gland) ([2]; BID 12.5 mg/kg oral),Ventral Prostate DNA (μg/gland) ([2]; BID 25 mg/kg oral),Ventral Prostate weight (mg/gland) ([2]; BID 25 mg/kg oral),Ventral Prostate DNA (μg/gland) ([2]; BID 50 mg/kg oral),Ventral Prostate weight (mg/gland) ([2]; BID 50 mg/kg oral)
competitive inhibitor,"CC(C)(C)NC(=O)[C@H]1CC[C@H]2[C@@H]3CC[C@H]4NC(=O)C=C[C@]4(C)[C@H]3CC[C@]12C [compound A, N-t-butyl-5-α-androst-1-ene-4-aza-17β-carboxamide-3-one]",plateau dose-response effect,692 ± 51 μg/gland,118 ± 5 mg/gland,708 ± 72 μg/gland,108 ± 10 mg/gland,698 ± 39 μg/gland,108 ± 7 mg/gland,289 ± 17 μg/gland,71 ± 11 mg/gland,290 ± 25 μg/gland,55 ± 7 mg/gland,284 ± 19 μg/gland,62 ± 7 mg/gland
uncompetitive inhibitor,"CC(C)(C)NC(=O)[C@H]1CC[C@H]2[C@@H]3CC=C4C=C(C(=O)O)CC[C@]4(C)[C@H]3CC[C@]12C [compound C, N-t-butyl-androst-3,5-diene-17β-carboxamide-3-carboxylic acid]",,851 ± 47 μg/gland,158 ± 15 mg/gland,890 ± 58 μg/gland,170 ± 19 mg/gland,855 ± 63 μg/gland,159 ± 20 mg/gland,359 ± 36 μg/gland,154 ± 22 mg/gland,383 ± 29 μg/gland,143 ± 17 mg/gland,316 ± 52 μg/gland,147 ± 15 mg/gland

SMILES,mechanism of inhibition versus testosterone (steroid 5-α-reductase),plateau dose-response effect on prostate weight reported in other studies [1],Seminal Vesicle DNA (μg/gland) (seminal vesicle; BID 12.5 mg/kg oral),Seminal Vesicle weight (mg/gland) (seminal vesicle; BID 12.5 mg/kg oral),Seminal Vesicle DNA (μg/gland) (seminal vesicle; BID 25 mg/kg oral),Seminal Vesicle weight (mg/gland) (seminal vesicle; BID 25 mg/kg oral),Seminal Vesicle DNA (μg/gland) (seminal vesicle; BID 50 mg/kg oral),Seminal Vesicle weight (mg/gland) (seminal vesicle; BID 50 mg/kg oral),Ventral Prostate DNA (μg/gland) ([2]; BID 12.5 mg/kg oral),Ventral Prostate weight (mg/gland) ([2]; BID 12.5 mg/kg oral),Ventral Prostate DNA (μg/gland) ([2]; BID 25 mg/kg oral),Ventral Prostate weight (mg/gland) ([2]; BID 25 mg/kg oral),Ventral Prostate DNA (μg/gland) ([2]; BID 50 mg/kg oral),Ventral Prostate weight (mg/gland) ([2]; BID 50 mg/kg oral)
"CC(C)N(C(=O)[C@H]1CC[C@H]2[C@@H]3CC=C4C=C(C(=O)O)CC[C@]4(C)[C@H]3CC[C@]12C)C(C)C [compound B, N,N-diisopropyl-androst-3,5-diene-17β-carboxamide-3-carboxylic acid]",uncompetitive inhibitor,,,,,,,,,,,,,
